{"source": "patent US4948813A", "about": "“Benzylketone phospholipase A2 inhibitors” (E. I. Du Pont de Nemours and Company, priority 1989, dated 1990)", "system": "inflammation induced by tetradecanoyl phorbol acetate (TPA)", "experiment": "TPA Inflammation Inhibition Test", "assay_type": "in vivo, mice", "settings": "mouse ear edema, topical, 100 mg/ear, four hours", "experimental": "The TPA model mimics many of the inflammatory change which occur in human skin diseases such as psoriasis, since elevated levels of inflammatory arachidonic acid metabolites are found and an influx of polymorphonuclear leukocytes is observed. The test procedure used to evaluate the compounds of Formula (I) is as follows: the test compound (100 mg/ear) is applied to both ears of mice in an appropriate vehicle, such as acetone, and then the inflammatory stimulus (TPA) is applied to the right ear. Four hours later, the edema is measured by removing standard size discs from the ears using a biopsy punch. A control group of animals receives TPA in vehicle applied to the right ear, and vehicle alone to the left ear.", "note": "Structures can show the parent of a compound that is named as a salt."}
{"smiles": "CC(C)c1ccc2c(c1)CCC1C(C)(CNCCC(=O)c3ccc(F)cc3)CCCC21C.Cl", "note": "(stereo not shown) [Example 52, 3-([1,4a-Dimethyl-1,2,3,4,4a,9,10,10a-octahydro-7-(1-methylethyl)-1-phenanthrenyl]methylamino)-1-(4-fluorophenyl)-1-propanone Hydrochloride]", "values": [{"measurement": "% Inhibition of Control Swelling", "value": 40, "unit": "%"}]}
{"smiles": "CC(C)c1ccc2c(c1)CCC1C(C)(CNCCC(=O)c3ccccc3)CCCC21C", "note": "(stereo not shown) [Example 21, 1-Phenyl-3-([4a-dimethyl-7-(1-methylethyl)-1,2,3,4,4a,9,10,10aoctahydro-1-phenanthren-1-yl]-methylamino)-1-propanone 4-Methylbenzenesulfonate]", "values": [{"measurement": "% Inhibition of Control Swelling", "value": 31, "unit": "%"}]}
{"smiles": "COc1ccc(CNCCC(=O)c2ccc(F)cc2)c2ccccc12", "note": "[Example 7, 1-(4-Fluorophenyl)-3-[(4-methoxy-1-naphthaIenyl)-methylamino]-1-propanone Hydrochloride]", "values": [{"measurement": "% Inhibition of Control Swelling", "value": 21, "unit": "%"}]}
{"smiles": "CCCCCCC(C)OCCCC(=O)c1ccc(F)cc1", "note": "(stereo not drawn) [Example 37, 1-(4-Fluorophenyl)-4-(d-1-methylheptyloxy)-1-butanone]", "values": [{"measurement": "% Inhibition of Control Swelling", "value": 20, "unit": "%"}]}
